SMILES strings stand for the structures.

The target of one test is KRas WT (Homo sapiens, UniProt P01116). The experiment in a line: KRas binding assay (TR-FRET displacement), KRas WT. Particulars: for inhibition at 0.01 µM: single point, 10 nM compound.
For a further test, the target named is KRas G12A (Homo sapiens, UniProt P01116, G12A). The format is binding. To be noted: for inhibition at 0.01 µM: single point, 10 nM compound, read-out: Binding to KRas (% inhibition at 10 nM) G12A.
In a further test the target is KRas G12C (Homo sapiens, UniProt P01116, G12C). The format is binding. Particulars: for inhibition at 0.01 µM: single point, 10 nM compound, read-out: Binding to KRas (% inhibition at 10 nM) G12C.
Chain of KRas G12C (P01116 1-169 isoform P01116-2 G12C): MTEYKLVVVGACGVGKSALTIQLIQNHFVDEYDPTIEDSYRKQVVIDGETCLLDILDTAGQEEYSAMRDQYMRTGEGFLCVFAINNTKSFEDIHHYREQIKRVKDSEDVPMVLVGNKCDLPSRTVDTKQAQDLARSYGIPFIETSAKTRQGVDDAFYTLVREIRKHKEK
A further test deals with KRas G12S (Homo sapiens, UniProt P01116, G12S). The format is binding. Particulars: for inhibition at 0.01 µM: single point, 10 nM compound, read-out: Binding to KRas (% inhibition at 10 nM) G12S.
Chain of KRas G12S (P01116 1-169 isoform P01116-2 G12S): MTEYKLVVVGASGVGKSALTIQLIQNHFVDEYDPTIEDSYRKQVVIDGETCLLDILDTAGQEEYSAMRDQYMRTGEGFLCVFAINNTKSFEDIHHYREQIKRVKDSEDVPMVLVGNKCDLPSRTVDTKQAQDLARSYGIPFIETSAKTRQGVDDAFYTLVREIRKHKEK
The target in another test is KRas G13D (Homo sapiens, UniProt P01116, G13D). The format is binding. Particulars: for inhibition at 0.01 µM: single point, 10 nM compound, read-out: Binding to KRas (% inhibition at 10 nM) G13D.
Chain of KRas G13D (P01116 1-169 isoform P01116-2 G13D): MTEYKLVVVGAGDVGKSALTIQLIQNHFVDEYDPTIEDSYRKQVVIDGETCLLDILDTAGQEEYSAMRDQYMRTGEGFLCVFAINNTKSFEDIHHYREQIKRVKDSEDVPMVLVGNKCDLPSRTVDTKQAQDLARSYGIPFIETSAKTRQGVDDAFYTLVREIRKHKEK
The target of another test is KRas Q61H (Homo sapiens, UniProt P01116, Q61H). The experiment in a line: KRas binding assay (TR-FRET displacement), KRas Q61H. Particulars: for inhibition at 0.01 µM: single point, 10 nM compound.
Chain of KRas Q61H (P01116 1-169 isoform P01116-2 Q61H): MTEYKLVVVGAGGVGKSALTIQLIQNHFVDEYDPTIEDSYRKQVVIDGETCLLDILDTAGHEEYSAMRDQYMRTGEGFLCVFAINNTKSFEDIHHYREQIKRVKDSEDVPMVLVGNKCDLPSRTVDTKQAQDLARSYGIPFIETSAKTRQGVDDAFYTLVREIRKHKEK
Another test concerns MKN1 cells. The experiment in a line: Inhibition of KRas-mediated phosphorylation of ERK (Cisbio HTRF pERK), MKN1 cells. The format is cell-based. To be noted: Homo sapiens, MKN-1, 3 hour compound incubation, Cisbio pERK HTRF. The essentials: (§1)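 Day 1: 6,000 cells/well plated, RPMI + 10% FBS.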
In the next test the test system is PSN1 cells. The experiment in a line: Inhibition of KRas-mediated phosphorylation of ERK (Cisbio HTRF pERK), PSN1 cells. The format is cell-based. Particulars: Homo sapiens, PSN1, 3 h, 3 hour compound incubation, Cisbio pERK HTRF. In short, it runs like this: as §1
For a further test, the system named is ASPC1 cells. The experiment in a line: Inhibition of KRas-mediated phosphorylation of ERK (Cisbio HTRF pERK), ASPC1 cells. The format is cell-based. Particulars: Homo sapiens, ASPC1, 3 h, AsPC-1 cells; 3 hr compound incubation; Cisbio pERK HTRF.
The test system of another test is H727 cells. The experiment in a line: Inhibition of KRas-mediated phosphorylation of ERK (Cisbio HTRF pERK), H727 cells. The format is cell-based. Particulars: Homo sapiens, NCI-H727, 3 h, 3 hr compound incubation, Cisbio pERK HTRF.
The subject of another test is A549 cells. The experiment in a line: Inhibition of KRas-mediated phosphorylation of ERK (Cisbio HTRF pERK), A549 cells. The format is cell-based. To be noted: Homo sapiens, A549, 3 h, 3 hr compound incubation, Cisbio pERK HTRF.
Another test concerns H460 cells. The experiment in a line: Inhibition of KRas-mediated phosphorylation of ERK (Cisbio HTRF pERK), H460 cells. Type of test: cell-based. Particulars: Homo sapiens; for IC50: NCI-H460, 3 h, 3 hr compound incubation, Cisbio pERK HTRF.
The subject of another test is HCT116 cells. The experiment in a line: Inhibition of KRas-mediated phosphorylation of ERK (Cisbio HTRF pERK), HCT116 cells. The format is cell-based. Particulars: Homo sapiens; for IC50: HCT-116, 3 h, 3 hr compound incubation, Cisbio pERK HTRF.
The next test concerns the target KRas G12D (Homo sapiens, UniProt P01116, G12D). The experiment in a line: biochemical. Particulars: Binding to KRas (IC50 nM) G12D, TR-FRET displacement, KRas G12D.
The next test addresses KRas G12R (Homo sapiens, UniProt P01116, G12R). The experiment in a line: biochemical. To be noted: Binding to KRas (IC50 nM) G12R, TR-FRET displacement, KRas G12R.
In the next test the target is KRas G12V (Homo sapiens, UniProt P01116, G12V). The experiment in a line: biochemical. Particulars: Binding to KRas (IC50 nM) G12V, TR-FRET displacement, KRas G12V.
Chain of KRas G12V (P01116 1-169 isoform P01116-2 G12V): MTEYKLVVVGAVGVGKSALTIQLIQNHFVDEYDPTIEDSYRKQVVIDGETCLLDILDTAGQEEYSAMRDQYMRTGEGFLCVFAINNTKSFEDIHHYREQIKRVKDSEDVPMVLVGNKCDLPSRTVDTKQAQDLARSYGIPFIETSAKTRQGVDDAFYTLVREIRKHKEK

Chain of KRas G12A (P01116 1-169 isoform P01116-2 G12A): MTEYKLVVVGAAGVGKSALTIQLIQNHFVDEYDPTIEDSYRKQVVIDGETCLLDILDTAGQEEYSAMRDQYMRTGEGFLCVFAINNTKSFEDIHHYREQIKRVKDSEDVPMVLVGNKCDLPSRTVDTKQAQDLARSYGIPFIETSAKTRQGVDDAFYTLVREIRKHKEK
Chain of KRas G12R (P01116 1-169 isoform P01116-2 G12R): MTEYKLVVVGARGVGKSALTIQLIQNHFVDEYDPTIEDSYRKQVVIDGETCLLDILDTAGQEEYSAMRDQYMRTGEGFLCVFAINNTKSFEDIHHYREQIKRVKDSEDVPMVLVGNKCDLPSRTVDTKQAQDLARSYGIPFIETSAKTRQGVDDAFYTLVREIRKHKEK
Chain of KRas G12D (P01116 1-169 isoform P01116-2 G12D): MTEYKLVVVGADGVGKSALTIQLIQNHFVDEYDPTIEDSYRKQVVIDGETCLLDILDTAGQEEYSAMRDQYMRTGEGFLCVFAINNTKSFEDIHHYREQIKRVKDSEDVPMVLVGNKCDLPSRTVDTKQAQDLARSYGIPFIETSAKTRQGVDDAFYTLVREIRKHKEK
Chain of KRas WT (P01116 1-169 isoform P01116-2): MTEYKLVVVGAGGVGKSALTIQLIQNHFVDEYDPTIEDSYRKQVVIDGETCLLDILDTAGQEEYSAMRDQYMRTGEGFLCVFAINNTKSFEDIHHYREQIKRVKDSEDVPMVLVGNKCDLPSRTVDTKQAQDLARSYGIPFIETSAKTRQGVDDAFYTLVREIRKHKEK

In the case of `CCNc1cc2n(n1)CCCN(c1nc(OC[C@@]34CCCN3C[C@H](F)C4)nc3c1CCN(c1cc(O)cc4ccc(F)c(CC)c14)C3)C2` [Example 412, 5-ethyl-4-(4-(2-(ethylamino)-7,8-dihydro-4H-pyrazolo[1,5-a][1,4]diazepin-5(6H)-yl)-2-(((2R,7aS)-2-fluorohexahydro-1H-pyrrolizin-7a-yl)methoxy)-5,6-dihydropyrido[3,4-d]pyrimidin-7(8H)-yl)-6-fluoronaphthalen-2-ol], the inhibition at 0.01 µM on KRas WT was found to be 62%; on KRas G12A it was 62%; on KRas G12C it was 83%; at KRas G12S it was 76%; on KRas G13D it was 60%; at KRas Q61H, 61%. The IC50 in the test on MKN1 cells was 1.7 nM; in the test on PSN1 cells, greater than 10000 nM; in the test with ASPC1 cells, 96 nM; in the test with H727 cells, 72 nM; in the test with A549 cells, 213 nM; in the test on H460 cells, 207 nM. The IC50 with HCT116 cells was 614 nM; at KRas G12D, less than 2 nM; on KRas G12R, less than 2 nM; at KRas G12V it was less than 2 nM.

For the compound `CCc1c(F)ccc2cc(O)cc(N3CCc4c(nc(OC[C@@]56CCCN5C[C@H](F)C6)nc4N4CCCn5nc6c(c5C4)CCCNC6=O)C3)c12` [Example 415, 2-(7-(8-ethyl-7-fluoro-3-hydroxynaphthalen-1-yl)-2-(((2R,7aS)-2-fluorohexahydro-1H-pyrrolizin-7a-yl)methoxy)-5,6,7,8-tetrahydropyrido[3,4-d]pyrimidin-4-yl)-2,3,4,5,9,10,11,12-octahydroazepino[3′,4′:3,4]pyrazolo[1,5-a][1,4]diazepin-8(1H)-one], the inhibition at 0.01 µM was 99% on KRas WT; 100% at KRas G12A; 100% at KRas G12C; 100% at KRas G12S; 99% on KRas G13D; 100% at KRas Q61H. Moreover, the IC50 with MKN1 cells stood at 16 nM; in the test with PSN1 cells, 1980 nM; with ASPC1 cells it was 26 nM; in the test with H727 cells, 28 nM; with A549 cells, 134 nM; with H460 cells it was 171 nM. In addition, the IC50 with HCT116 cells is 504 nM; at KRas G12D it was less than 2 nM; on KRas G12R it was less than 2 nM; at KRas G12V it was less than 2 nM.

With `CCc1c(F)ccc2cc(O)cc(N3CCc4c(nc(OC[C@@]56CCCN5C[C@H](F)C6)nc4N4CCCC5(CC(=O)NC5=O)C4)C3)c12` (stereo partly drawn) [Example 419, 7-(7-(8-ethyl-7-fluoro-3-hydroxynaphthalen-1-yl)-2-(((2R,7aS)-2-fluorohexahydro-1H-pyrrolizin-7a-yl)methoxy)-5,6,7,8-tetrahydropyrido[3,4-d]pyrimidin-4-yl)-2,7-diazaspiro[4.5]decane-1,3-dione], the inhibition at 0.01 µM at KRas WT was 62%; on KRas G12A, 54%; at KRas G12C, 83%; at KRas G12S it was 72%; at KRas G13D, 82%; at KRas Q61H, 90%. Besides, the IC50 in the test on MKN1 cells was determined as 6 nM; in the test with PSN1 cells it was 194 nM; in the test with ASPC1 cells, 40 nM; in the test on H727 cells it was 37 nM; in the test with A549 cells, 9 nM; in the test with H460 cells, 20 nM. The half-maximal inhibitory concentration (IC50) is 38 nM in the test on HCT116 cells, less than 2 nM on KRas G12D, less than 2 nM on KRas G12R and less than 2 nM at KRas G12V.

Turning to `CCc1c(F)ccc2cc(O)cc(N3CCc4c(nc(OC[C@@]56CCCN5C[C@H](F)C6)nc4N4CCCOCC4)C3)c12` [Example 420, 5-ethyl-6-fluoro-4-(2-(((2R,7aS)-2-fluorohexahydro-1H-pyrrolizin-7a-yl)methoxy)-4-(1,4-oxazepan-4-yl)-5,6-dihydropyrido[3,4-d]pyrimidin-7(8H)-yl)naphthalen-2-ol], the inhibition at 0.01 µM turned out to be 95% at KRas WT; 96% at KRas G12A; 98% at KRas G12C; 97% at KRas G12S; 95% at KRas G13D; 97% on KRas Q61H. The IC50 with MKN1 cells was determined as 5.8 nM; in the test with PSN1 cells it was 2740 nM; in the test on ASPC1 cells it was 66 nM; in the test with H727 cells it was 38 nM; with A549 cells, 24 nM; in the test with H460 cells it was 38 nM. The concentration for half-maximal inhibition (IC50) in the test on HCT116 cells was 143 nM; at KRas G12D, less than 2 nM; on KRas G12R, less than 2 nM; at KRas G12V, less than 2 nM.

Regarding `CCc1c(F)ccc2cc(O)cc(N3CCc4c(nc(OC[C@@]56CCCN5C[C@H](F)C6)nc4N4Cc5cn(C(=O)N(C)C)nc5CC(C)C4)C3)c12` (stereo partly drawn) [Example 422, 5-(7-(8-ethyl-7-fluoro-3-hydroxynaphthalen-1-yl)-2-(((2R,7aS)-2-fluorohexahydro-1H-pyrrolizin-7a-yl)methoxy)-5,6,7,8-tetrahydropyrido[3,4-d]pyrimidin-4-yl)-N,N,7-trimethyl-5,6,7,8-tetrahydropyrazolo[4,3-c]azepine-2(4H)-carboxamide], the inhibition at 0.01 µM at KRas WT is 58%; on KRas G12A, 55%; on KRas G12C, 72%; on KRas G12S it was 60%; on KRas G13D, 55%; at KRas Q61H it was 62%. For the same compound, the half-inhibitory concentration (IC50) with MKN1 cells was 189 nM; in the test with PSN1 cells, greater than 10000 nM; in the test on ASPC1 cells, 163 nM; in the test on H727 cells, 78 nM; with A549 cells, 147 nM; in the test on H460 cells, 169 nM. In addition, the IC50 with HCT116 cells was 616 nM; on KRas G12D, 2 nM; on KRas G12R, 3 nM; on KRas G12V, less than 2 nM.

Consider `CCc1c(F)ccc2cccc(N3CCc4c(nc(OC[C@@]56CCCN5C[C@H](F)C6)nc4N4CCCn5nc(C(=O)N(C)C)cc5C4)C3)c12` [Example 481, 5-(7-(8-ethyl-7-fluoronaphthalen-1-yl)-2-(((2R,7aS)-2-fluorohexahydro-1H-pyrrolizin-7a-yl)methoxy)-5,6,7,8-tetrahydropyrido[3,4-d]pyrimidin-4-yl)-N,N-dimethyl-5,6,7,8-tetrahydro-4H-pyrazolo[1,5-a][1,4]diazepine-2-carboxamide], for which the IC50 is 11 nM on KRas WT (TR-FRET displacement); 7 nM on KRas G12A (TR-FRET displacement, read-out: Binding to KRas (IC50 nM) G12A); 4 nM at KRas G12C (TR-FRET displacement, read-out: Binding to KRas (IC50 nM) G12C); 5 nM at KRas G12S (TR-FRET displacement, read-out: Binding to KRas (IC50 nM) G12S); 15 nM on KRas G13D (TR-FRET displacement, read-out: Binding to KRas (IC50 nM) G13D); 13 nM at KRas Q61H (TR-FRET displacement). The IC50 is 480 nM in the test with MKN1 cells; greater than 10000 nM with PSN1 cells; 106 nM with ASPC1 cells; 194 nM in the test with H727 cells; 285 nM in the test on A549 cells; less than 2 nM on KRas G12D. In addition, the IC50 on KRas G12R came out at 6 nM; on KRas G12V it was 2 nM. Also, the inhibition at 0.1 µM is -1% in the test with H460 cells (NCI-H460, single point at 100 nM, 3 hrs compound incubation) and 8% in the test with HCT116 cells (HCT-116, single point at 100 nM, 3 hrs compound incubation).

For the origin of these results see US20250368649A1, “TETRAHYDROPYRIDOPYRIMIDINE PAN-KRAS INHIBITORS” (Mirati Therapeutics, Inc., priority 2022, published 2025).
